PMC8750417, “Intracellular Amplifiers of Reactive Oxygen Species Affecting Mitochondria as Radiosensitizers” (Cancers, 2021)

Key:
[1] = n-octanol/water partition coefficient (logP) by RP-TLC; assay type: physicochemical; details: n-octanol/water partition coefficient of the hydrolyzed boronic acid (_BA) form of the prodrug named
Description: Determination of n-octanol/water partition coefficients (LogP) […]
mixture of dichloromethane/CH3OH at proper concentrations. Commercially available […]
7.4) (6/4, v/v) was used. The solvent migration distance was around 4.5 cm. The plates […]
and its distance was manually measured. All measurements were done in at least triplicate and average values were used in further calculations. All experiments were performed at ambient temperature (22 ± 2 °C). […]

Jurkat cells = assay: Jurkat flow cytometry (AnnexinA5/PI viability, DiIC1(5) MMP, monobromobimane GSH, cell cycle); assay type: cell-based, human; details: 48 h incubation
Description: Jurkat cells The cells were counted in MUSE Cell Analyzer using MUSE® Count &Viability Assay Kit (Merck-Millipore, Billerica, MA, USA) and adjusted to a density of 1.0 x 10^5/ml in RPMI 1640 medium (with 10% FCS and 1% glutamine). 9.000 cells per well per 90 µL were seeded into 96 well culture plates. The 30 mM prodrug stock solutions in DMSO were diluted to 300 µM, 100 µM, 30 µM and 10 µM in cell culture medium and 10 µL of the dilutions was pipetted to the cells, receiving final test concentrations of 30 µM, 10 µM, 3 µM and 1 µM. Every concentration was tested in triplicates. Cells with corresponding amounts of DMSO served as negative controls. After 48 h cells were mixed and 25 µL of […]
the cell suspension was incubated with 200 µL of freshly prepared staining solution, consisting of AnnexinA5-Fitc (1 µL), 1,1′,3,3,3′,3′-hexamethylindodicarbocyanine iodide (DiIC1(5), 0.4 µL) (both from ThermoFisher Scientific, Waltham, MA, USA), propidium iodide (PI, 67 ng) and monobromobimane (MBB, 33 µM, both from Sigma-Aldrich, Taufkirchen, Germany) per 1 ml Ringer’s solution (Fresenius Kabi AG, Bad Homburg, Germany). Cells were incubated for 20 min at 4°C and then analyzed in Gallios cytofluorometer™ (Beckman Coulter, Fullerton, CA, USA). Fitc and propidium iodide were excited at 488 nm; Fitc fluorescence was recorded on the FL1 sensor (525/38 nm band pass, BP) and propidium iodide fluorescence was detected on FL3 sensor (620/30 nm BP), DiIC1(5) fluorescence was excited at 638 nm and detected on FL6 sensor at 675/20 nm BP, and monobromobimane fluorescence was excited at 405 nm and detected on FL9 sensor at 430/40 nm BP. To eliminate any fluorescence bleed-through, electronic compensation was used. Data were analyzed employing Kaluza™ software Version 1.2 (Beckman Coulter, Fullerton, CA, USA) and processed in Microsoft Excel (Figures S51-S54, Table S5). Cells negative for Annexin A5-Fitc and propidium iodide were considered viable. IC50 values were determined by fitting the % values of Ax-PI- cells versus drug concentration with a sigmoidal curve using GraphPad Prism software. Reduced glutathione (an intracellular thiol) can be detected by monobromobimane, a dye that becomes fluorescent after non-enzymatic binding to thiols.[S3] For analysis of amount of mitochondrial membrane potential or reduced glutathione the mean fluorescence index (MFI) was determined from viable cells by gating on Ax -PI- events.
Table S5. Effects of the prodrugs on the viability of Jurkat cell lines (IC50 values) after 48

A2780 cells = assay: Cell viability, MTT assay, A2780; assay type: cell-based, human
Description: (§1) Determination of viability of cells in the presence of prodrugs and controls A2780 and BL-2 cells The medium was removed, and the cells were washed two times with DPBS, trypsinated, and resuspended in RPMI 1640 medium (A2780) supplemented with 5% FBS (for 24 h and 48 h assay) or 10% FBS (for 96 h assay) , 1% L-glutamine, and 1% penicillin/streptomycin.
(§2) A2780 cells: This suspension was spread in the wells of a 96 -well microtiter plate (25000 cells for A2780 per well per 100 μL) and left standing at 37 °C in the chamber filled with CO2 (5%) for overnight. Stock solutions of prodrugs of different concentra tions (1 μL, solvent dmso, final concentrations in wells were 2, 5, 10, 30, 50 μM) were added to the wells and incubated for specific periods of time. Four experiments were conducted for each concentration of the prodrug. Finally, 3-(4,5-dimethylthiazol-2-yl)-2,5-diphenyltetrazolium bromide (MTT, 20 μL of the solution prepared by dissolving MTT (5 mg) in DPBS buffer (1 mL)) was added to each well, incubated for 3 h, treated with sodium dodecyl sulfate (SDS) solution (90 μL, 10% solution in 0.01 M aqueous HC l), and incubated overnight. Afterward, the intensity of the absorbance at 590 nm was measured.
(§3) MTT is converted in live cells to blue dye with the absorbance maximum λ max at 590 nm.
The absorbance at 690 nm was taken as a baseline value. The baseline corrected absorbance at 590 nm (A(590 nm) − A(690 nm)) was applied to calculate the relative number of viable cells. IC50 values were determined by fitting the experimental data expressing the number of viable cells (%, Y-axis) versus drug concentration (μM, X-axis) with a line curve and the X-axis value corresponding to 50% viability was considered as IC50 value according to the line curve (Figure S50, Table S2). […]

BL-2 cells = assay: Cell viability, MTT assay, BL-2; assay type: cell-based, human; details: BL-2, 48 h incubation
Description: as §1, §2, §3
The absorbance at 690 nm was taken as a baseline value. The baseline corrected absorbance at 590 nm (A(590 nm) − A(690 nm)) was applied to calculate the relative number of viable cells. IC50 values were determined by fitting the experimental data expressing the number of viable cells (%, Y-axis) versus drug concentration (μM, X-axis) with a line curve and the X-axis value corresponding to 50% viability was considered as IC50 value according to the line curve (Figure S50, Table S2).
BL-2 cells: The cells were centrifuged, the medium was removed, and the cells were washed two times with DPBS and re-suspended in RPMI 1640 medium containing 5% (48 h incubation) or 10% FBS (96 h incubation), 1% L-glutamine, and 1% penicillin/ streptomycin. This suspension was spread in the wells of a 96-well microtiter plate (50000 cells per well per 100 μL). Other steps were identical to those was described in determination of viability of adherent cells (given above) (Table S3).

CCOC(=O)CCCCCn1cc(CN(C(=O)OCc2ccc(B(O)O)cc2)[c-]2cccc2)nn1.[Fe+2].c1cc[cH-]c1 [1_BA, reference compound]
logP (Hydrolyzed Prodrug) [1]: 2.83 ± 0.07

O=C(OCc1ccc(B(O)O)cc1)N(Cc1cn(Cc2ccc(Cn3cc(Cc4ccccc4)nn3)cc2)nn1)[c-]1cccc1.[Fe+2].c1cc[cH-]c1 [2c_BA]
logP (Hydrolyzed Prodrug) [1]: 3.23 ± 0.11

C1=CCC=C1.CC1(C)OB(c2ccc(COC(=O)N(Cc3cn(CCC[P+](c4ccccc4)(c4ccccc4)c4ccccc4)nn3)C3C=CC=C3)cc2)OC1(C)C.[Fe+2] [5c, reference compound]
IC50 (Jurkat cells): 20 µM
IC50 (A2780 cells; A2780, 24 h incubation): 10 ± 3 µM
IC50 (A2780 cells; A2780, 48 h incubation): 5 ± 2 µM
IC50 (A2780 cells; A2780, 96 h incubation): 5 ± 2 µM
IC50 (BL-2 cells): 5 µM

[Fe+2].c1cc[cH-]c1.c1ccc(Cn2cc(CN[c-]3cccc3)nn2)cc1 [compound 3]
IC50 (A2780 cells; A2780, 48 h incubation): > 50 µM

[Fe+2].c1cc[cH-]c1.c1ccc(CN[c-]2cccc2)cc1 [compound 4]
IC50 (A2780 cells; A2780, 48 h incubation): > 50 µM
